# Assay: Solubility in water at 20° C.
# Type: physicochemical
# Text: The above hydrophobic liquid (B) is a hydrophobic liquid that can dissolve or disperse well the above active ingredient (A) and is not a surfactant. In this case, the “hydrophobicity” of this hydrophobic liquid (B) should disperse as liquid particles containing the active ingredient (A), without dissolving into the water-based composition containing the water-soluble polymer substance (C) and the excipient (D) described below. […] When this “hydrophobicity” is insufficient, it becomes difficult to remain dispersed in the composition while containing the above active ingredient (A), and all or much of the active ingredient (A) becomes contained in the composition as crystals, which makes it impossible to achieve the purpose of the present invention.
structure (smiles),measurement,value
CC(O)CO (stereo not shown) [propylene glycol],solubility in water at 20° C.,exceeding 10 mass %

# Source: US20240074968A1, “ORAL PHARMACEUTICAL COMPOSITION AND METHOD FOR PRODUCING PARTICULATE FORMULATION COMPRISING COMPOSITION” (Sunsho Pharmaceutical Co., Ltd., priority 2016, published 2024)
